For one molecule, IC50 results are on record in paper PMC5820170 (Molecular cancer therapeutics, 2015).

The target in this test is Mammalian Ste20-like kinase 4 (MST4) (Homo sapiens, UniProt Q9P289). In kind it is biochemical.
Chain of Mammalian Ste20-like kinase 4 (MST4) (Q9P289 whole entry): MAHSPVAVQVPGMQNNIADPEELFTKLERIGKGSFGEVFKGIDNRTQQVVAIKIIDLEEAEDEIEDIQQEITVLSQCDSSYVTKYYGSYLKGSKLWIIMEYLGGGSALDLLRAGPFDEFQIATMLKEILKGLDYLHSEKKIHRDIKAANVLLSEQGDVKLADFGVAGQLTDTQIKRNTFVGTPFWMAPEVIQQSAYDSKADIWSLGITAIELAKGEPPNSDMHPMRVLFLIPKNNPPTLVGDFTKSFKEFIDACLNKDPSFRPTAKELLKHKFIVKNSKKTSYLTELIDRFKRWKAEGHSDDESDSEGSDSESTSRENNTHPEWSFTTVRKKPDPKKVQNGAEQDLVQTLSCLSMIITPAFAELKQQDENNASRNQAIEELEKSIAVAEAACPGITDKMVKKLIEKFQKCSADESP

`CCS(=O)(=O)Nc1ccc2c(c1)/C(=C(/Nc1ccc(CN3CCCCC3)cc1)c1ccccc1)C(=O)N2` [Hesperadin] gave an IC50 of 6.18 ± 2.2 nM.
